Data: patent publication US20250090699A1, “FAP TARGETING CYCLIC PEPTIDES AND CONJUGATES THEREOF” (Novartis AG, priority 2023, published 2025)
Starred links: 1 amine or outer side, 2 acyl side, 3 side chain; linkers in the order of their positions; H or OH if unused. Non-standard residues stand in square brackets, D forms with d. Residues, ends and D or L forms follow the SMILES beside them. Groups on a side chain read outwards from the residue. *: point of attachment. DOTA = O=C(O)CN1CCN(CC(=O)O)CCN(CC(=O)*)CCN(CC(=O)O)CC1; Piperazinyl(4-CH2COOH) = O=C(O)CN1CCN(*)CC1; AEF = NCCOc1ccc(C[C@H](N)C(=O)O)cc1; X10 = O=C([C@H]1COCCN1[*:1])[*:2]; NMeF = CN[C@@H](Cc1ccccc1)C(=O)O; αMeD = C[C@](N)(CC(=O)O)C(=O)O; d(αMeP) = C[C@]1(C(=O)O)CCCN1; Ahp(2) = CCCCC[C@H](N)C(=O)O; dPip = O=C(O)[C@H]1CCCCN1; Nphe = O=C(O)CNCc1ccccc1; dNMeA = CN[C@H](C)C(=O)O; CO = O=C([*:1])[*:2]; Sar = CNCC(=O)O

Key:
[1] = target: T1, mouse FAP (Mus musculus, UniProt P97321); assay: Enzymatic FAP competition assay (Z-Gly-Pro-AMC fluorescence), mouse FAP; type: biochemical; details: read-out: m. FAP, Enz., IC50
T1 construct: biotinylated His, Avi tag, mouse FAP (26-761, FAP-M82Q5); His; Avi tag (biotinylated); purchased AcroBiosystems FAP-M82Q5
T1 sequence (P97321 26-761): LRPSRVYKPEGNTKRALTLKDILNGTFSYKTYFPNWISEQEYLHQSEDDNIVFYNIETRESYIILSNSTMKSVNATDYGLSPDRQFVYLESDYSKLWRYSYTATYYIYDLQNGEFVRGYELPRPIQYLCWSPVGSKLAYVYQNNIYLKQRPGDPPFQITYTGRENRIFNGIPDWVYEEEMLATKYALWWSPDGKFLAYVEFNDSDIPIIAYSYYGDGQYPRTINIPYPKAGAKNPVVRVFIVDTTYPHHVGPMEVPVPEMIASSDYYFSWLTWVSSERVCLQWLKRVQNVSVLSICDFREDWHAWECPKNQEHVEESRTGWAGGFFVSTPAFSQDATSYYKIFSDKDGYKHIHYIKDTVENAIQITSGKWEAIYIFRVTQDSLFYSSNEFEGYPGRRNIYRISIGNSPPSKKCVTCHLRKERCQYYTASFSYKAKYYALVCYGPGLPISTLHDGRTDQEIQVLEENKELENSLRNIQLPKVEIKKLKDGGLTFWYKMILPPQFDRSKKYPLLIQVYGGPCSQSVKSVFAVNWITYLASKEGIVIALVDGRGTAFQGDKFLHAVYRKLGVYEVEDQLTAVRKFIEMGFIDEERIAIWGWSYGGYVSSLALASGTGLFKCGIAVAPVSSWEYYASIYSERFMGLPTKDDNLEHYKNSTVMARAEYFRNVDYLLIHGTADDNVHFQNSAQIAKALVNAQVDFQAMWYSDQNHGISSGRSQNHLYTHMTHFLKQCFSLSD
Outline: (§1)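 Biotinylated His/Avi-tagged FAP ectodomain (human 26-760, mouse 26-761) at 0.01 nM, preincubated 24 h with peptides (14 concentrations, up to 1 μM) in pH 7.5 phosphate, 150 mM NaCl, 0.05% Tween20, 1% DMSO. Then 50 μM Z-Gly-Pro-AMC, 4 h at 22-24° C; AMC fluorescence (380/460 nm) gave IC50 from duplicate points.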

[2] = target: T2, human FAP (Homo sapiens, UniProt Q12884); assay: Enzymatic FAP competition assay (Z-Gly-Pro-AMC fluorescence), human FAP; type: biochemical; details: read-out: h. FAP, Enz., IC50
T2 construct: the biotinylated His, Avi tag, human FAP (26-760, FAP-H82Q6); His; Avi tag (biotinylated); purchased AcroBiosystems FAP-H82Q6
T2 sequence (Q12884 26-760): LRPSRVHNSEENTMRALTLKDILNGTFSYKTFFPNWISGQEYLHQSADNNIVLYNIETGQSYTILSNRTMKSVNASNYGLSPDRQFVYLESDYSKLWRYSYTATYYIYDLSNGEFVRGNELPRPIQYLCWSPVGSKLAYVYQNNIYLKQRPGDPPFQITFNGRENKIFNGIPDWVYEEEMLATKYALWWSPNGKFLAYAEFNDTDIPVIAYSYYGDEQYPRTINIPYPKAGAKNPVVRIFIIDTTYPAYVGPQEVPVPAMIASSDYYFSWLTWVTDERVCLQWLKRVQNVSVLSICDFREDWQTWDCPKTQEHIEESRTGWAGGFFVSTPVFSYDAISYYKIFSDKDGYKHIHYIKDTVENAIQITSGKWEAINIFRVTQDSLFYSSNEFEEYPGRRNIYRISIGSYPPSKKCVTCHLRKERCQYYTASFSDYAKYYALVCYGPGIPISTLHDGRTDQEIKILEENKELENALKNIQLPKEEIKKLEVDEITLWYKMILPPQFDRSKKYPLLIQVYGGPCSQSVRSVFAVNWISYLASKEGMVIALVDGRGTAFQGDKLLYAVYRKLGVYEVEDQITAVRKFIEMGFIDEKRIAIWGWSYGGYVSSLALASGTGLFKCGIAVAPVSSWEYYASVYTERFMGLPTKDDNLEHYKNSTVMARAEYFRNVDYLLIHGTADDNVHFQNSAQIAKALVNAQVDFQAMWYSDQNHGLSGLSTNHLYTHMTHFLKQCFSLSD
Outline: as §1

[3] = target: T1, mouse FAP; assay: Surface plasmon resonance (SPR) for peptide affinity, mouse FAP; type: binding
Outline: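 Biotinylated His/Avi-tagged FAP ectodomains (human 26-760, mouse 26-761) captured or immobilized on Biacore sensor chips; peptides run at 25 °C in HBS-EP+ pH 7.6 with 2% DMSO, single-cycle kinetics, 8 concentrations. KD from 1:1 binding-model fit of sensorgrams.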

Compound | IC50 [1] | IC50 [2] | Kd [3]
CCCCC[C@@H]1NC(=O)[C@H](Cc2ccc(O)cc2)NC(=O)[C@H](Cc2ccccc2)N(C)C(=O)CNC(=O)CNC(=O)[C@H]2COCCN2C(=O)[C@H](CC(=O)O)NC(=O)[C@H](Cc2ccc(O)cc2)NC(=O)CNC(=O)[C@H](Cc2c[nH]c3ccccc23)NC1=O [Example A63, Gly-Gly-NMePhe-Tyr-Ahp-Trp-Gly-Tyr-Asp-Mor(3R-COOH)] (cyclo([Ahp(2)]WGYD[X10]GG[NMeF]Y)) | 55 nM | 15 nM | 20 nM
CCCCC[C@@H]1NC(=O)[C@H](Cc2ccc(O)cc2)NC(=O)[C@H](Cc2ccccc2)N(C)C(=O)CNC(=O)CNC(=O)[C@H]2CCCN2C(=O)[C@H](CC(=O)O)NC(=O)[C@H](Cc2ccc(O)cc2)NC(=O)[C@@H](C)NC(=O)[C@H](Cc2c[nH]c3ccccc23)NC1=O [Example A64, Gly-Gly-NMePhe-Tyr-Ahp-Trp-D-Ala-Tyr-Asp-D-Pro] (cyclo([Ahp(2)]W[dA]YD[dP]GG[NMeF]Y)) | 4.1 nM | 2.4 nM | 3.6 nM
CCCCC[C@@H]1NC(=O)[C@H](Cc2ccc(O)cc2)NC(=O)[C@H](Cc2ccccc2)N(C)C(=O)CNC(=O)CNC(=O)[C@@H](C)N(C)C(=O)[C@H](CC(=O)O)NC(=O)[C@H](Cc2ccc(O)cc2)NC(=O)CNC(=O)[C@H](Cc2c[nH]c3ccccc23)NC1=O [Example A65, Gly-Gly-NMePhe-Tyr-Ahp-Trp-Gly-Tyr-Asp-D-NMeA] (cyclo([Ahp(2)]WGYD[dNMeA]GG[NMeF]Y)) | 2.8 nM | 0.34 nM | 1.8 nM
CCCCC[C@@H]1NC(=O)[C@H](Cc2ccc(O)cc2)NC(=O)[C@H](Cc2ccccc2)N(C)C(=O)CNC(=O)CNC(=O)[C@H]2CCCCN2C(=O)[C@H](CC(=O)O)NC(=O)[C@H](Cc2ccc(O)cc2)NC(=O)CNC(=O)[C@H](Cc2c[nH]c3ccccc23)NC1=O [Example A66, Gly-Gly-NMePhe-Tyr-Ahp-Trp-Gly-Tyr-Asp-Pi(2R-COOH)] (cyclo([Ahp(2)]WGYD[dPip]GG[NMeF]Y)) | 1.2 nM | 0.27 nM | 0.46 nM
CCCCC[C@@H]1NC(=O)[C@H](Cc2ccc(O)cc2)NC(=O)[C@H](Cc2ccccc2)N(C)C(=O)[C@@H](CO)NC(=O)CNC(=O)[C@H]2CCCN2C(=O)[C@H](CC(=O)O)NC(=O)[C@H](Cc2ccc(O)cc2)NC(=O)CNC(=O)[C@H](Cc2c[nH]c3ccccc23)NC1=O [Example A67, Gly-D-Ser-NMePhe-Tyr-Ahp-Trp-Gly-Tyr-Asp-D-Pro] (cyclo([Ahp(2)]WGYD[dP]G[dS][NMeF]Y)) | 252 nM | 76 nM | 208 nM
CCCCC[C@@H]1NC(=O)[C@H](Cc2ccc(O)cc2)NC(=O)[C@H](Cc2ccccc2)N(C)C(=O)CNC(=O)CNC(=O)CN(C)C(=O)[C@H](CC(=O)O)NC(=O)[C@H](Cc2ccc(O)cc2)NC(=O)CNC(=O)[C@H](Cc2c[nH]c3ccccc23)NC1=O [Example A68, Gly-Gly-NMePhe-Tyr-Ahp-Trp-Gly-Tyr-Asp-NMeGly] (cyclo([Ahp(2)]WGYD[Sar]GG[NMeF]Y)) | 80 nM | 12 nM | 35 nM
CCCCC[C@@H]1NC(=O)[C@H](Cc2ccc(O)cc2)NC(=O)[C@H](Cc2ccccc2)N(C)C(=O)CNC(=O)[C@@H](CO)NC(=O)[C@H]2CCCN2C(=O)[C@H](CC(=O)O)NC(=O)[C@H](Cc2ccc(O)cc2)NC(=O)CNC(=O)[C@H](Cc2c[nH]c3ccccc23)NC1=O [Example A69, D-Ser-Gly-NMePhe-Tyr-Ahp-Trp-Gly-Tyr-Asp-D-Pro] (cyclo([Ahp(2)]WGYD[dP][dS]G[NMeF]Y)) | 0.47 nM | 0.121 nM | 0.222 nM
CCCCC[C@@H]1NC(=O)[C@H](Cc2ccc(O)cc2)NC(=O)[C@H](Cc2ccccc2)N(C)C(=O)CNC(=O)CNC(=O)[C@@]2(C)CCCN2C(=O)[C@H](CC(=O)O)NC(=O)[C@H](Cc2ccc(O)cc2)NC(=O)CNC(=O)[C@H](Cc2c[nH]c3ccccc23)NC1=O [Example A70, Gly-Gly-NMePhe-Tyr-Ahp-Trp-Gly-Tyr-Asp-D-aMeP] (cyclo([Ahp(2)]WGYD[d(αMeP)]GG[NMeF]Y)) | 0.116 nM | 0.036 nM | 0.104 nM
CCCCC[C@@H]1NC(=O)[C@H](Cc2ccc(O)cc2)NC(=O)[C@H](Cc2ccccc2)N(C)C(=O)CNC(=O)CNC(=O)[C@H]2CCCN2C(=O)[C@H](CCC(=O)O)NC(=O)[C@H](Cc2ccc(O)cc2)NC(=O)CNC(=O)[C@H](Cc2c[nH]c3ccccc23)NC1=O [Example A71, Gly-Gly-NMePhe-Tyr-Ahp-Trp-Gly-Tyr-Glu-D-Pro] (cyclo([Ahp(2)]WGYE[dP]GG[NMeF]Y)) | 0.61 nM | 0.69 nM | 0.242 nM
CCCCC[C@@H]1NC(=O)[C@H](Cc2ccc(O)cc2)NC(=O)[C@H](Cc2ccccc2)N(C)C(=O)CNC(=O)CNC(=O)[C@H]2CCCN2C(=O)[C@](C)(CC(=O)O)NC(=O)[C@H](Cc2ccc(O)cc2)NC(=O)CNC(=O)[C@H](Cc2c[nH]c3ccccc23)NC1=O [Example A72, Gly-Gly-NMePhe-Tyr-Ahp-Trp-Gly-Tyr-aMeD-D-Pro] (cyclo([Ahp(2)]WGY[αMeD][dP]GG[NMeF]Y)) | 1000 nM | 237 nM | > 6000 nM
CCCCC[C@@H]1NC(=O)[C@H](Cc2ccc(O)cc2)NC(=O)[C@H](Cc2ccccc2)N(C)C(=O)CNC(=O)CN(C)C(=O)[C@H]2CCCN2C(=O)[C@H](CC(=O)O)NC(=O)[C@H](Cc2ccc(O)cc2)NC(=O)CNC(=O)[C@H](Cc2c[nH]c3ccccc23)NC1=O [Example A73, 2-((9S,12S,15S,18S,24S,27S,32aR)-18-((1H-indol-3-yl)methyl)-9-benzyl-12,24-bis(4-hydroxybenzyl)-2,8-dimethyl-1,4,7,10,13,16,19,22,25,28-decaoxo-15-pentyldotriacontahydropyrrolo[1,2-a][1,4,7,10,13,16,19,22,25,28]decaazacyclotriacontin-27-yl)acetic acid] (cyclo([Ahp(2)]WGYD[dP][Sar]G[NMeF]Y)) | 0.101 nM | 0.028 nM | 0.081 nM
CCCCC[C@@H]1NC(=O)[C@H](Cc2ccc(O)cc2)NC(=O)[C@H](Cc2ccccc2)N(C)C(=O)CNC(=O)CNC(=O)[C@H]2CCCN2C(=O)[C@H](CC(=O)O)NC(=O)CN(Cc2ccccc2)C(=O)CNC(=O)[C@H](Cc2c[nH]c3ccccc23)NC1=O [Example A74, Gly-Gly-NMePhe-Tyr-Ahp-Trp-Gly-NBnG-Asp-D-Pro] (cyclo(GG[NMeF]Y[Ahp(2)]WG[Nphe]D[dP])) | 3.3 nM | 1.4 nM | 4.6 nM
CCCCC[C@@H]1NC(=O)[C@H](Cc2ccc(OCCNC(=O)CN3CCN(CC(=O)O)CCN(CC(=O)O)CCN(CC(=O)O)CC3)cc2)NC(=O)[C@H](Cc2ccccc2)N(C)C(=O)CNC(=O)CNC(=O)[C@H]2CCCN2C(=O)[C@H](CC(=O)O)NC(=O)[C@H](CCCCNC(=O)N2CCN(CC(=O)O)CC2)NC(=O)CNC(=O)[C@H](Cc2c[nH]c3ccccc23)NC1=O [Example B3, Gly-Gly-NMePhe-F(4OEtNHDOTA)-Ahp-Trp-Gly-K(COpipzaa)-Asp-D-Pro] (cyclo([AEF](DOTA)[Ahp(2)]WGK([CO-Piperazinyl(4-CH2COOH)])D[dP]GG[NMeF])) | 0.091 nM | 0.025 nM | 0.093 nM
